Laboratory results from EP0934940A1, “CYTOKINE PRODUCTION INHIBITORS, TRIAZEPINE COMPOUNDS, AND INTERMEDIATES THEREOF” (Japan Tobacco Inc., priority 1996, dated 1997).
Read-outs that look alike come from different tables or passages of the source.

How the values were obtained:
[1] = tested on: IL-6; assay: Inhibitory activity on in vivo IL-6 production by LPS stimulation; conditions: male ICR mice, LPS stimulation i.v., test compound 10 mg/kg p.o. at the same time, blood two hours later, relative to 0.5% CMC-Na group; for inhibition in vivo at 10 mg/kg: Mus musculus, po, 2 h, read-out: Inhibtion (%) of plasma IL-6 production (10 mg/kg, p.o.)
Protocol: Inhibitory activity on in vivo IL-6 production by LPS stimulation
LFS (0.3 mg/kg) was intravenously administered to male ICR mice (6-week-old) fasted for 24 hours. At the same time, the test compound suspended in 0.5% CMC-Na ( carboxymethylcellulose sodium) was orally administered at the dose of 10 mg/kg.
Two hours later, blood was taken from eyegrounds. The blood was centrifuged, and the plasma fraction was diluted and quantitatively assayed for IL-6 in blood by ELISA (Endogen EM-IL6). The inhibitory percentage of the group administered with the test compound was expressed relative to the amount of IL-6 in blood of the cup administered with 0.5% CMC-Na.

[2] = tested on: TNF-α; assay: Inhibitory activity on TNF-α production from LPS-stimulated human PBMC (ELISA); format: cell-based; conditions: Homo sapiens, PBMC, 24 h
Protocol: (§1) Inhibitory activity on cytokine production from human PBMC (peripheral blood mononuclear cell)
(§2) PBMC fractions were isolated from human blood using a mono-poly resolving medium. The cells (PBMC) were cultured in 5% FCS (fetal calf serum)/RPMI1640 medium. Thereafter, the test compound was added to the final concentration of 0.001-10 µM, and LPS (lipopolysaccharide) was added to the final concentration of 10 µg/ml. After incubatioin for 24 hours, the supernatant was separated and freeze stocked at -80°C.
(§3) On the day of experiment, the supernatant was thawed and the production amount of cytokine was measured by ELISA. IL-6 was assayed using [(h)IL-6] human, ELISA system (Amersham); TNF-α was assayed using [(h)TNF-α] human, ELISA system (Amersham); GM-CSF was assayed using human GM-CSF immunoassay (R&D systems); and IL-8 was assayed using human IL-8 immunoassay (R&D systems). The determination method followed the method of each kit. The results are expressed in IC50.

[3] = tested on: IL-6; assay: Inhibitory activity on IL-6 production from LPS-stimulated human PBMC (ELISA); format: cell-based; conditions: 24 h
Protocol: as §1, §2, §3

[4] = read-out: TNF-α IC50 (µM), human PBMC, LPS 10 µg/ml, incubation 24 hours, supernatant ELISA
[5] = read-out: IL-6 IC50 (µM), human PBMC, LPS 10 µg/ml, incubation 24 hours, supernatant ELISA
[6] = human PBMC, LPS 10 µg/ml, incubation 24 hours, supernatant ELISA, read-out: TNF-α IC50
[7] = human PBMC, LPS 10 µg/ml, incubation 24 hours, supernatant ELISA, read-out: IL-6 IC50

| IC50 [2, 4] | IC50 [3, 5] | SMILES | also measured |
| --- | --- | --- | --- |
|  |  | Cc1ccc(CN2N=C(c3ccc(Cl)cc3)c3ccccc3-n3c(C)nnc32)cc1 [Synthetic Example 54, 6-(4-Chlorophenyl)-1-methyl-4-(4-methylbenzyl)-4H-2,3,4,5,10b-pentaazabenz[e]azulene] | inhibition in vivo at 10 mg/kg [1]: 56% |
| < 0.01 µM | 0.01 µM | Cc1sc2c(c1C)C(c1ccc(Cl)cc1)=NN(Cc1ccncc1)c1nnc(C)n1-2 [compound 114] |  |
| < 0.01 µM | < 0.01 µM | Cc1ccc2c(c1)-n1c(C)nnc1N(Cc1ccc(C#N)cc1)N=C2c1ccc(Cl)cc1 [compound 108] |  |
|  |  | Cc1nnc2n1-c1ccccc1C(c1ccc(NC(=O)OC(C)(C)C)cc1)=NN2Cc1ccc(C#N)cc1 [Example 13, tert-Butyl 4-[4-(4-cyanobenzyl)-1-methyl-4H-2,3,4,5,10b-pentaazabenz[e]azulen-6-yl]phenylcarbamate] | IC50 [2, 6]: < 0.01 µM; IC50 [3, 7]: 0.02 µM |
| 0.01 µM | 0.08 µM | Cc1nnc2n1-c1ccccc1C(c1ccc(Cl)cc1)=NN2Cc1ccncc1 [compound 86] |  |
| 0.01 µM | 3.9 µM | Cc1nnc2n1-c1ccccc1C(c1ccc(Cl)cc1)=NC2NC(=O)c1cc2ccccc2[nH]1 (stereo not drawn) [compound 205] |  |
| 0.01 µM | 1.6 µM | CCOC(=O)C1(NC(=O)Nc2cc(OC)ccc2OC)N=C(c2ccc(Cl)cc2)c2ccccc2-n2c(C)nnc21 (stereo not drawn) [compound 199] |  |
| 0.07 µM | 0.4 µM | Cc1nnc2n1-c1ccccc1C(c1ccccc1)=NN2Cc1ccc(C#N)cc1 [compound 111] |  |
|  |  | COC(=O)c1ccc(C2=NN(Cc3ccc(C#N)cc3)c3nnc(C)n3-c3ccccc32)cc1 [Example 7, Methyl 4-[4-(4-cyanobenzyl)-1-methyl-4H-2,3,4,5,10b-pentaazabenz[e]azulen-6-yl]benzoate] | IC50 [2, 6]: 0.5 µM; IC50 [3, 7]: 0.23 µM |
| < 0.01 µM | 0.008 µM | COc1ccc(CN2N=C(c3ccc(OC)cc3)c3c(sc(C)c3C)-n3c(C)nnc32)cc1 [compound 18] |  |
| 0.6 µM | 3.4 µM | Cc1nnc2n1-c1ccccc1C(c1ccc(Cl)cc1)=NC2CC(=O)Nc1ccccc1 (stereo not drawn) [compound 195] |  |
| < 0.01 µM | < 0.01 µM | Cc1cc2c(s1)-n1c(C)nnc1N(Cc1ccc(C#N)cc1)N=C2c1ccccc1 [compound 122] |  |
|  |  | Cc1sc2c(c1C)C(c1ccc(Cl)cc1)=NN(Cc1cc[n+]([O-])cc1)c1nnc(C)n1-2 [Example 3, 4-[4-(4-Chlorophenyl)-2,3,9-trimethyl-6H-1-thia-5,6,7,8,9a-pentaazacyclopent[e]azulen-6-ylmethyl]-pyridine-1-oxide] | IC50 [2, 6]: 0.05 µM; IC50 [3, 7]: 0.2 µM |
|  |  | Cc1nnc2n1-c1ccccc1C(c1ccc(Cl)cc1)=NN2Cc1ccncc1 [Synthetic Example 86, 6-(4-Chlorophenyl)-1-methyl-4-(pyridin-4-ylmethyl)-4H-2,3,4,5,10b-pentaazabenz[e]azulene] | inhibition in vivo at 10 mg/kg [1]: 89% |
| 0.014 µM | 0.06 µM | COc1ccc(C2=NN(Cc3ccncc3)c3nnc(C)n3-c3sc(C)c(C)c32)cc1 [compound 129] |  |
|  |  | Cc1cc2c(s1)-n1c(C)nnc1N(Cc1ccncc1)N=C2c1ccccc1 [Synthetic Example 121, 2,9-Dimethyl-4-phenyl-6-(pyridin-4-ylmethyl)-6H-5,6,7,8,9a-pentaazathieno[2,3-e]azulene] | inhibition in vivo at 10 mg/kg [1]: 91% |
| < 0.01 µM | 0.02 µM | Cc1sc2c(c1C)C(c1ccccc1)=NN(Cc1ccncc1)c1nnc(C)n1-2 [compound 125] |  |
|  |  | Cc1ccc2c(c1)-n1c(C)nnc1N(Cc1ccc(C#N)cc1)N=C2c1ccc(Cl)cc1 [Synthetic Example 108, 6-(4-Chlorophenyl)-4-(4-cyanbenzyl)-1,9-dimethyl-4H-2,3,4,5,10b-pentaazabenz[e]azulene] | Inhibtion (%) of plasma IL-6 production (10 mg/kg, p.o.) [1]: 70% |
| 0.06 µM | 0.8 µM | Cc1sc2c(c1C)C(c1ccccc1Cl)=NN(Cc1ccncc1)c1nnc(C)n1-2 [compound 20] |  |
| < 0.01 µM | 0.08 µM | CCc1cc2c(s1)-n1c(C)nnc1N(Cc1ccncc1)N=C2c1ccccc1 [compound 127] |  |

| IC50 [2, 4] | IC50 [3, 5] | SMILES | also measured |
| --- | --- | --- | --- |
|  |  | Cc1cc2c(s1)-n1c(C)nnc1N(Cc1ccc(-c3nnn(C)n3)cc1)N=C2c1ccccc1 [Example 17, 2,9-dimethyl-4-phenyl-6-[4-(2-methyl-2H-tetrazol-5-yl)benzyl]-6H-5,6,7,8,9a-pentaazathieno[2,3-e]azulene] | IC50 [2, 6]: 0.12 µM |
| 0.3 µM | > 10 µM | Cc1nnc2n1-c1ccccc1C(c1ccc(Cl)cc1)=NC21NC(=O)N(c2ccccc2)C1=O (stereo not drawn) [compound 197] |  |
| 0.001 µM | 0.11 µM | Cc1ccc(C2=NN(Cc3ccncc3)c3nnc(C)n3-c3ccccc32)cc1 [compound 103] |  |
| 0.007 µM | 0.22 µM | Cc1ccc2c(c1)-n1c(C)nnc1N(Cc1ccncc1)N=C2c1ccccc1 [compound 97] |  |
| < 0.01 µM | 0.04 µM | Cc1cc2c(s1)-n1c(C)nnc1N(Cc1ccncc1)N=C2c1ccccc1 [compound 121] |  |
| < 0.01 µM | < 0.01 µM | CCc1cc2c(s1)-n1c(C)nnc1N(Cc1ccc(C#N)cc1)N=C2c1ccc(Cl)cc1 [compound 119] |  |
| 0.4 µM | > 10 µM | COc1ccc(OC)c(NC(=O)NC2N=C(c3ccc(Cl)cc3)c3ccccc3-n3c(C)nnc32)c1 (stereo not drawn) [compound 204] |  |
| < 0.01 µM | < 0.01 µM | Cc1nnc2n1-c1ccccc1C(c1ccc(Cl)cc1)=NN2Cc1ccc(C#N)cc1 [compound 39] |  |
|  |  | Cc1sc2c(c1C)C(c1ccccc1)=NN(Cc1ccncc1)c1nnc(C)n1-2 [Synthetic Example 125, 2,3,9-Trimethyl-4-phenyl-6-(pyridin-4-ylmethyl)-6H-5,6,7,8,9a-pentaazathieno[2,3-e]azulene] | inhibition in vivo at 10 mg/kg [1]: 84% |
|  |  | CCc1cc2c(s1)-n1c(C)nnc1N(Cc1ccncc1)N=C2c1ccc(Cl)cc1 [Synthetic Example 118, 4-(4-Chlorophenyl)-2-ethyl-9-methyl-6-(pyridin-4-ylmethyl)-6H-5,6,7,8,9a-pentaazathieno[2,3-e]azulene] | inhibition in vivo at 10 mg/kg [1]: 75% |
|  |  | Cc1ccc2c(c1)-n1c(C)nnc1N(Cc1ccncc1)N=C2c1ccccc1 [Synthetic Example 97, 1,9-Dimethyl-6-phenyl-4-(pyridin-4-ylmethyl)-4H-2,3,4,5,10b-pentaazabenz[e]azulene] | inhibition in vivo at 10 mg/kg [1]: 98% |
| 0.03 µM | 0.34 µM | Cc1nnc2n1-c1ccccc1C(c1ccccc1)=NN2Cc1ccncc1 [compound 95] |  |
|  |  | Cc1sc2c(c1C)C(c1ccc(Cl)cc1)=NN(Cc1ccc(C#N)cc1)c1nnc(C)n1-2 [Synthetic Example 115, 4-(4-Chlorophenyl)-6-(4-cyanobenzyl)-2,3,9-trimethyl-6H-5,6,7,8,9a-pentaazathieno[2,3-e]azulene] | inhibition in vivo at 10 mg/kg [1]: 75% |
| 0.09 µM | 2.5 µM | COc1ccc(OC)c(N2C(=O)NC3(N=C(c4ccc(Cl)cc4)c4ccccc4-n4c(C)nnc43)C2=O)c1 (stereo not drawn) [compound 196] |  |
|  |  | Cc1nnc2n1-c1ccccc1C(c1ccc(NC(=O)OC(C)(C)C)cc1)=NN2Cc1ccc([N+](=O)[O-])cc1 [Example 14, tert-Butyl 4-[1 methyl-4-(4-nitrobenzyl)-4H-2,3,4,5,10b-pentaazabenz[e]azulen-6-yl]phenylcarbamate] | IC50 [2, 6]: < 0.01 µM; IC50 [3, 7]: 0.02 µM |
| 0.01 µM | 0.06 µM | Cc1sc2c(c1C)C(c1ccc(Cl)cc1)=NN(Cc1ccc(C#N)cc1)c1nnc(C)n1-2 [compound 115] |  |
| 0.02 µM | 0.01 µM | Cc1ccc(CN2N=C(c3ccc(Cl)cc3)c3ccccc3-n3c(C)nnc32)cc1 [compound 54] |  |
| 0.2 µM | 5.7 µM | Cc1nnc2n1-c1ccccc1C(c1ccc(Cl)cc1)=NC2NC(=O)NC1CCCCC1 (stereo not drawn) [compound 203] |  |
|  |  | CCc1cc2c(s1)-n1c(C)nnc1N(Cc1cc[n+]([O-])cc1)N=C2c1ccc(Cl)cc1 [Example 4, 4-[4-(4-Chlorophenyl)-2-ethyl-9-methyl-6H-1-thia-5,6,7,8,9a-pentaazacyclopent[e]azulen-6-ylmethyl]-pyridine-1-oxide] | IC50 [3, 7]: 2 µM |

| SMILES | IC50 [2, 4] | IC50 [3, 5] | also measured |
| --- | --- | --- | --- |
| Cc1nnc2n1-c1ccccc1C(c1ccc(Br)cc1)=NN2Cc1ccc(Br)cc1 [compound 109] | 0.07 µM | < 0.01 µM |  |
| Cc1nnc2n1-c1ccc([N+](=O)[O-])cc1C(c1ccccc1)=NN2Cc1ccncc1 [compound 102] | 0.05 µM | 1.15 µM |  |
